In PubChem BioAssay AID2060898 (Molecular Pharmacology Branch, DTP, NCI, 2025):

System: 616215-338-R-J1-PDC complex spheroid viability
Assay: Anticancer human tumor 616215-338-R-J1-PDC patient-derived colon adenocarcinoma cell line growth inhibition [RAS]
Details: for IC50: curve of first compound; for viability, T/C: stronger effect = lower value
Method in brief: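 Agents were tested in combination matrices in half-log decrements from a top concentration at or near clinical Cmax (10 microM if undetermined). Targets were multi-cell spheroids of tumour lines plus HUVEC and MSC stromal cells.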

[1] = second compound 0.000949 µM, first compound 0.0316 µM
[2] = second compound 0.000949 µM, first compound 0.1 µM
[3] = second compound 0.000949 µM, first compound 0.316 µM
[4] = second compound 0.000949 µM, first compound 1 µM
[5] = second compound 0.000949 µM, first compound 3.16 µM
[6] = second compound 0.000949 µM, first compound 10 µM
[7] = second compound 0.003 µM, first compound 0.0316 µM
[8] = second compound 0.003 µM, first compound 0.1 µM
[9] = second compound 0.003 µM, first compound 0.316 µM
[10] = second compound 0.003 µM, first compound 1 µM
[11] = second compound 0.003 µM, first compound 3.16 µM
[12] = second compound 0.003 µM, first compound 10 µM
[13] = second compound 0.00949 µM, first compound 0.0316 µM
[14] = second compound 0.00949 µM, first compound 0.1 µM
[15] = second compound 0.00949 µM, first compound 0.316 µM
[16] = second compound 0.00949 µM, first compound 1 µM
[17] = second compound 0.00949 µM, first compound 3.16 µM
[18] = second compound 0.00949 µM, first compound 10 µM
[19] = second compound 0.03 µM, first compound 0.0316 µM
[20] = second compound 0.03 µM, first compound 0.1 µM
[21] = second compound 0.03 µM, first compound 0.316 µM
[22] = second compound 0.03 µM, first compound 1 µM
[23] = second compound 0.03 µM, first compound 3.16 µM
[24] = second compound 0.03 µM, first compound 10 µM
[25] = second compound 0.0949 µM, first compound 0.0316 µM
[26] = second compound 0.0949 µM, first compound 0.1 µM
[27] = second compound 0.0949 µM, first compound 0.316 µM
[28] = second compound 0.0949 µM, first compound 1 µM
[29] = second compound 0.0949 µM, first compound 3.16 µM
[30] = second compound 0.0949 µM, first compound 10 µM
[31] = second compound 0.3 µM, first compound 0.0316 µM
[32] = second compound 0.3 µM, first compound 0.1 µM
[33] = second compound 0.3 µM, first compound 0.316 µM
[34] = second compound 0.3 µM, first compound 1 µM
[35] = second compound 0.3 µM, first compound 3.16 µM
[36] = second compound 0.3 µM, first compound 10 µM
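Also: spheroids exposed to agents for seven days before viability readout.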
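For viability, T/C in this document: 100% = DMSO vehicle control viability.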

## CC(C)NCC(C(=O)N1CCN(c2ncnc3c2C(C)CC3O)CC1)c1ccc(Cl)cc1 (stereo unspecified) + CCn1c(-c2cc(N3CCN(C)CC3)cnc2C(C)OC)c2c3cc(ccc31)-c1csc(n1)CC(NC(=O)C1CC1C)C(=O)N1CCCC(N1)C(=O)OCC(C)(C)C2
Second compound 0.000949 µM
  IC50: 7560 nM
Second compound 0.003 µM
  IC50: 5480 nM
Second compound 0.00949 µM
  IC50: 2380 nM
Second compound 0.03 µM
  IC50: < 31.6 nM
Second compound 0.0949 µM
  IC50: < 31.6 nM
Second compound 0.3 µM
  IC50: < 31.6 nM
[1]
  viability, T/C: 109%
[2]
  viability, T/C: 106%
[3]
  viability, T/C: 102%
[4]
  viability, T/C: 106%
[5]
  viability, T/C: 78.2%
[6]
  viability, T/C: 41%
[7]
  viability, T/C: 113%
[8]
  viability, T/C: 107%
[9]
  viability, T/C: 103%
[10]
  viability, T/C: 105%
[11]
  viability, T/C: 67.5%
[12]
  viability, T/C: 30.9%
[13]
  viability, T/C: 96.1%
[14]
  viability, T/C: 85.1%
[15]
  viability, T/C: 81.7%
[16]
  viability, T/C: 82.1%
[17]
  viability, T/C: 39.6%
[18]
  viability, T/C: 21.6%
[19]
  viability, T/C: 50.8%
[20]
  viability, T/C: 40%
[21]
  viability, T/C: 36.5%
[22]
  viability, T/C: 47.7%
[23]
  viability, T/C: 26.1%
[24]
  viability, T/C: 14.5%
[25]
  viability, T/C: 43.7%
[26]
  viability, T/C: 34.9%
[27]
  viability, T/C: 33.3%
[28]
  viability, T/C: 25.9%
[29]
  viability, T/C: 22%
[30]
  viability, T/C: 11.1%
[31]
  viability, T/C: 52%
[32]
  viability, T/C: 29.9%
[33]
  viability, T/C: 32.8%
[34]
  viability, T/C: 26.6%
[35]
  viability, T/C: 19.4%
[36]
  viability, T/C: 11.1%

## CC(Nc1ccc2c(c1)OCCn1cc(N3C(=O)OCC3C(F)F)nc1-2)C(N)=O (stereo unspecified) + CCn1c(-c2cc(N3CCN(C)CC3)cnc2C(C)OC)c2c3cc(ccc31)-c1csc(n1)CC(NC(=O)C1CC1C)C(=O)N1CCCC(N1)C(=O)OCC(C)(C)C2
Second compound 0.000949 µM
  IC50: > 10000 nM
Second compound 0.003 µM
  IC50: > 10000 nM
Second compound 0.00949 µM
  IC50: 281 nM
Second compound 0.03 µM
  IC50: < 31.6 nM
Second compound 0.0949 µM
  IC50: < 31.6 nM
Second compound 0.3 µM
  IC50: < 31.6 nM
[1]
  viability, T/C: 114%
[2]
  viability, T/C: 106%
[3]
  viability, T/C: 103%
[4]
  viability, T/C: 117%
[5]
  viability, T/C: 94.6%
[6]
  viability, T/C: 74.5%
[7]
  viability, T/C: 109%
[8]
  viability, T/C: 99.5%
[9]
  viability, T/C: 85.5%
[10]
  viability, T/C: 83.2%
[11]
  viability, T/C: 91.4%
[12]
  viability, T/C: 69%
[13]
  viability, T/C: 90.9%
[14]
  viability, T/C: 63.5%
[15]
  viability, T/C: 48.4%
[16]
  viability, T/C: 48.9%
[17]
  viability, T/C: 47.7%
[18]
  viability, T/C: 48%
[19]
  viability, T/C: 37.4%
[20]
  viability, T/C: 41.2%
[21]
  viability, T/C: 28.6%
[22]
  viability, T/C: 37.1%
[23]
  viability, T/C: 38.1%
[24]
  viability, T/C: 28.2%
[25]
  viability, T/C: 33.3%
[26]
  viability, T/C: 31.9%
[27]
  viability, T/C: 28.7%
[28]
  viability, T/C: 25.9%
[29]
  viability, T/C: 23.2%
[30]
  viability, T/C: 25.3%
[31]
  viability, T/C: 37.8%
[32]
  viability, T/C: 40.5%
[33]
  viability, T/C: 27.5%
[34]
  viability, T/C: 29.3%
[35]
  viability, T/C: 25.3%
[36]
  viability, T/C: 23.5%

## O=C(c1ccc(F)c(F)c1Nc1ccc(I)cc1F)N1CC(O)([C@@H]2CCCCN2)C1 + CCn1c(-c2cc(N3CCN(C)CC3)cnc2C(C)OC)c2c3cc(ccc31)-c1csc(n1)CC(NC(=O)C1CC1C)C(=O)N1CCCC(N1)C(=O)OCC(C)(C)C2
Second compound 0.000949 µM
  IC50: 41.4 nM
Second compound 0.003 µM
  IC50: 22.6 nM
Second compound 0.00949 µM
  IC50: 6.67 nM
Second compound 0.03 µM
  IC50: < 3.16 nM
Second compound 0.0949 µM
  IC50: < 3.16 nM
Second compound 0.3 µM
  IC50: < 3.16 nM
Second compound 0.000949 µM, first compound 0.00316 µM
  viability, T/C: 115%
Second compound 0.000949 µM, first compound 0.01 µM
  viability, T/C: 87.5%
[1]
  viability, T/C: 58.6%
[2]
  viability, T/C: 27%
[3]
  viability, T/C: 12.1%
[4]
  viability, T/C: 3.52%
Second compound 0.003 µM, first compound 0.00316 µM
  viability, T/C: 101%
Second compound 0.003 µM, first compound 0.01 µM
  viability, T/C: 73.3%
[7]
  viability, T/C: 39%
[8]
  viability, T/C: 20.6%
[9]
  viability, T/C: 5.3%
[10]
  viability, T/C: 2.66%
Second compound 0.00949 µM, first compound 0.00316 µM
  viability, T/C: 66.8%
Second compound 0.00949 µM, first compound 0.01 µM
  viability, T/C: 39.9%
[13]
  viability, T/C: 24.2%
[14]
  viability, T/C: 15.7%
[15]
  viability, T/C: 2.25%
[16]
  viability, T/C: 2.11%
Second compound 0.03 µM, first compound 0.00316 µM
  viability, T/C: 32.5%
Second compound 0.03 µM, first compound 0.01 µM
  viability, T/C: 30.3%
[19]
  viability, T/C: 21.2%
[20]
  viability, T/C: 3.47%
[21]
  viability, T/C: 1.98%
[22]
  viability, T/C: 1.79%
Second compound 0.0949 µM, first compound 0.00316 µM
  viability, T/C: 30.1%
Second compound 0.0949 µM, first compound 0.01 µM
  viability, T/C: 19.2%
[25]
  viability, T/C: 4.14%
[26]
  viability, T/C: 1.63%
[27]
  viability, T/C: 1.65%
[28]
  viability, T/C: 1.53%
Second compound 0.3 µM, first compound 0.00316 µM
  viability, T/C: 25.9%
Second compound 0.3 µM, first compound 0.01 µM
  viability, T/C: 18.8%
[31]
  viability, T/C: 2.37%
[32]
  viability, T/C: 1.55%
[33]
  viability, T/C: 1.12%
[34]
  viability, T/C: 1.16%
